One assay deals with DIO-NAFLD mice. Description: i.p. injection of ISAP1 in DIO-NAFLD mice: epididymal fat pad. The class given is in vivo, C57BL/6 mice. The text has this: S110: a diet-induced obesity and nonalcoholic fatty liver disease (DIO-NAFLD) mouse model by HFD feeding may be established.
Thirty specific pathogen free (SPF) level healthy 6-week-old male C57BL/6 mice may be purchased from the Experimental Animal Center of Guangdong Province. A body mass of each mouse may be 18 g to 22 g. The mice may be divided into two groups, housed in a SPF-grade animal facility of SIAT. Six mice may be fed with ND (the ND contains 5% of fat; 53% of carbohydrate; 23% of protein, having total calories of […]) for 12 weeks to be a ND control group, and may be allowed to have food and water ad lib. The other mice may be fed with HFD (the HFD may be D12451, Research Diets, Inc.) for 12 weeks, and may be allowed to have food and water ad lib. Physiological indexes of the mice may be detected. […] In the present embodiment, an average body weight of the DIO-NAFLD mice may be more than 40 g. Comparison of average body weight of the mice of the established model with that of the mice in the ND control group is shown in FIG. 1. The arrow indicates a time point at which the HFD be started.
S121: effect of i.p. injection of ISAP1 on epididymal fat pad may be studied.
When the body weight of the each mouse fed with the HFD is more than 40 g, and when the blood glucose level of the each mouse is above 10 mMol, each DIO-NAFLD mouse may be treated with i.p. injection of ISAP1 for 6 consecutive weeks. The DIO-NAFLD mice may be divided into 4 groups, 6 mice in each group. ISAP1 may be dissolved in normal saline solution containing 0.01% of BSA. A dosage of 20 pmol/g of ISAP1 may be i.p. injected into each DIO-NAFLD mouse in group #1 once a day, and a dosage of 2 pmol/g of ISAP1 may be i.p. injected into each DIO-NAFLD mouse in group #2 once a day. OCN (mouse OCN protein) may be prepared and administered similarly as the ISAP1 at a dosage of 6 pmol/g to each mouse in group #3. The mice in group #4 may be treated with normal saline only as a HFD control group. After 6 weeks, the mice may be euthanized by application of 95% CO2, and epididymal fat pads of 4 mice selected from each group and an epididymal fat pad of a mouse from the ND control group may collected and weighed. Paraffin slices of each epididymal fat pad may be prepared, and an area of the adipocytes may be observed by microscopy.
Statistical analysis may be performed to compare with the HFD control group, wherein *: P<0.05, **: P<0.01, and ***: P<0.001.

The target in another assay is T1, human GPRC6A (hGPRC6A) (Homo sapiens, UniProt Q5T6X5).
T1 construct: expressed in transfected cells; host or cells: Hela cells (transfected with Lipofectamine 2000)
T1 sequence (Q5T6X5 19-926): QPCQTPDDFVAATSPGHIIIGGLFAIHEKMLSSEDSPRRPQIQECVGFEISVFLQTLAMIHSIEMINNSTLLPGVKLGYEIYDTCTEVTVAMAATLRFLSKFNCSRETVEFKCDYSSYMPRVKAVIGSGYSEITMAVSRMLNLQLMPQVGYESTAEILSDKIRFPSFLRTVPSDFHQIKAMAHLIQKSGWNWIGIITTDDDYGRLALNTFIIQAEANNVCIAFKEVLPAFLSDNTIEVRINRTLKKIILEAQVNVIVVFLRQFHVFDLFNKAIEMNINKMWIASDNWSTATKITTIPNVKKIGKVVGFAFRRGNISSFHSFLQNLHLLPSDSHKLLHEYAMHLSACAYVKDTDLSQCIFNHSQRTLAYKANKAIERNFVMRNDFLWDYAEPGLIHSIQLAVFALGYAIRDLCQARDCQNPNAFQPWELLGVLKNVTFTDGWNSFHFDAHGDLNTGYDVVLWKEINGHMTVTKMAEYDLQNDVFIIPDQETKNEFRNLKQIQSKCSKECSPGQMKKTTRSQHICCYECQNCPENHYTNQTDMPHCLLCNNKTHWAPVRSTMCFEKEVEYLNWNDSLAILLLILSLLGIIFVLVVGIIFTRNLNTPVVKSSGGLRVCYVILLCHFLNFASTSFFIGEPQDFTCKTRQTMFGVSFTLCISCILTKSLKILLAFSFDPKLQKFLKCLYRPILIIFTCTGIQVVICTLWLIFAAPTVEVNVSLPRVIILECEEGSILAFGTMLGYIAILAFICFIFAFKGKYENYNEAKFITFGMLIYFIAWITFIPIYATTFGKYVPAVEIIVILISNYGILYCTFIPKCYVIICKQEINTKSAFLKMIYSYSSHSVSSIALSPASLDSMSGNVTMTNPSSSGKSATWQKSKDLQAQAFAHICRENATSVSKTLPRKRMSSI
Put plainly: fluorescent binding of OCN peptides to cell membranes of Hela cells with hGPRC6A overexpressed. Particulars: Hela cells with hGPRC6A overexpressed, fluorescent detection, FIG. 6B. As for the experimental part:
S131: overexpression of hGPRC6A in Hela cells may be established.
1) Cell plating: A Hela cell suspension may be plated at a density of 1.6×10^5 cells/mL into a 6-well tray with 2 mL of DMEM per well, incubating at 37° C. and 5% CO2 for 24 hours.
2) A vector carrying hGPRC6A (pReceiver-M61) may be transfected into the Hela cells for overexpression, using Lipofectamine 2000 (Invitrogen) as per manufacturer's instructions, and media containing the vector may be replaced by normal media 4 hours later.
3) After the transfection, the cells may be cultured in the normal media for another 48 hours, and the normal media may be discarded. The cells attached on a bottom of each well may be washed twice with sterile PBS, and 300 μl of TRIzol solution may be added into each well. Cellular RNAs may be extracted as per RNAiso Plus (TaKaRa) instructions, and after a DNase treatment, may be reversely transcribed into cDNAs using DNAEngine and a SuperScript™ (Invitrogen, Canada) kit. The cDNAs may be used as a template, and real-time monitoring and analysis may be performed to fluorescent PCR products at various time points using a SYBR Green (Light Cycler Roche, Germany) method to detect expression levels of the hGPRC6A. […] The selected cell strain may then be detected for its gene expression by qPCR. […]

Ends that are not written are not given here.

YLGASVPSPDPLEPT [ISAP1]: the “size of the epididymal fat pads” value in the assay with DIO-NAFLD mice (daily i.p. injection 6 weeks (20 or 2 pmol/g), compared with HFD control group, FIG. 2A) was “significantly reduce the size”. Besides, the “weight (average mass) of the epididymal fat pad” value with DIO-NAFLD mice (daily i.p. injection 6 weeks (20 or 2 pmol/g), compared with HFD control group, FIG. 2B) was “significantly reduce the weight”. Besides, the “sizes of adipocytes, H&E staining of epididymal fat pads” value in the assay on DIO-NAFLD mice (daily i.p. injection 6 weeks, compared with HFD control group, FIG. 2C) is “significantly reduce sizes of adipocytes”. In the assay on DIO-NAFLD mice (daily i.p. injection 6 weeks, double-blind, FIG. 2D), the “average surface areas of single adipocytes calculated from H&E stained slices” value was “significantly reduce the sizes of the adipocytes”. Further, the “affinity of binding to the hGPRC6A compared with OCN” value with human GPRC6A (hGPRC6A) was “consistent with that of the OCN”.
